The record followed here is US20210228562A1, “IRAK DEGRADERS AND USES THEREOF” (Kymera Therapeutics, Inc., priority 2019, published 2021).

What all share (assay type): cell-based
One assay addresses T1, IRAK4 (Homo sapiens, UniProt Q9NWZ3).
T1 construct: endogenous in cells; host or cells: OCI-LY10
T1 sequence (Q9NWZ3 1-460): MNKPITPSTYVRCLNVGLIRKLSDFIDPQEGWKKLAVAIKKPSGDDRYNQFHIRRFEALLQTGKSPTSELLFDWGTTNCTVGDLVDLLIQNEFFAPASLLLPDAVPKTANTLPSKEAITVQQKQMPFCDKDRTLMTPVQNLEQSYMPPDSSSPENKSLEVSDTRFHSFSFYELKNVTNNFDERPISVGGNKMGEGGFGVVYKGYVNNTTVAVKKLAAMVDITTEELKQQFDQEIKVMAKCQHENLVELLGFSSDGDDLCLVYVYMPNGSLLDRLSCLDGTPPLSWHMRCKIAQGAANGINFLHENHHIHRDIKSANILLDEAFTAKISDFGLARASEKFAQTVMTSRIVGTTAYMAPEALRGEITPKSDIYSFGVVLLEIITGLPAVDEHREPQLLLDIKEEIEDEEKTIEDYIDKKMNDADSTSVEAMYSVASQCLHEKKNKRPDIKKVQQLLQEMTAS
As to the kind of experiment: IRAK4 MSD Degradation in OCI-LY10. The conditions noted are these: OCI-LY10 cells, 24 hrs incubation; read-out: IRAK4 degradation in OCI-LY10 at 24 hrs: DC50. The protocol:
Degradation of IRAK4 in OCI-LY10 was quantitatively measured using Meso Scale Discovery technology. OCI-LY10 cells were seeded in 96-well plates (Corning 3799) with a density of 300,000 cells per well in 100 μL fresh media. Compounds were then added to the assay plates with a final top concentration of 1 to 10 μM in a 1:3 dilution series with total of 8 doses. The assay plates were then incubated for 4 to 24 hours at 37° C. under 5% CO2. The assay plates were then centrifuged for 5 minutes and the cell pellets were treated with 100 μL/well RIPA lysis buffer (Boston BioProducts BP-115D) with proteinase inhibitors. To prepare MSD assay plates (Meso Scale Discovery Catalog number L15XA-3), the plates were coated with 2 μg/mL capture antibody (mouse Anti-IRAK4 antibody [2H9], ab119942) in PBS, at 40 μL/well. The plates were then incubated overnight at 4° C., washed 3 times with 150 μL/well TBST buffer (Cell Signaling Technology, Catalog number 9997S) and blocked with 150 μL/well blocking buffer (Meso Scale Discovery Catalog number R93BA-4). Cell lysates were then added to MSD assay plates and the plates were incubated at room temperature for 1 hour. The plates were then washed 3 times with 150 μL/well TBST buffer and 25 μL/well primary detection antibody (rabbit Anti-IRAK4 antibody [Y279], from Abcam. Catalog number ab32511, 1 μg/mL). The assay plates were then incubated at room temperature for 1 hour, washed 3 times with 150 μL/well TBST buffer and 25 μL/well secondary detection antibody, SULFO-TAG anti-rabbit antibody were added (anti rabbit antibody from Meso Scale Discovery, Catalog number R32AB-1, 1 μg/mL). The assay plates were then incubated at room temperature for 1 hour, washed 3 times with 150 μL/well TBST buffer, and 150 μL/well MSD reading buffer (Meso Scale Discovery catalog number R92TC-2) was added. The plates were then analyzed by a MSD reader (Meso Scale Discovery, Model Quick Plex SQ 120). The data was then analyzed by software Prism 7.0 from GraphPad and the dose-depended IRAK4 degradation were fit using a three-parameter logistic equation to calculate DC50.

In assay [1] the target is T2, Aiolos (protein product of gene IKZF3) (Homo sapiens, UniProt Q96SW2+Q9UKT9).
T2 construct: endogenous in cells; host or cells: OCI-LY10
As to the kind of experiment: Quantification of Aiolos degradation in OCI-LY10 cells (quantitative immunoblotting). The conditions noted are these: 6 h treatment. Put shortly:
(§1)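 OCI-LY10 cells (2×10^6/well) treated 6 h with listed compound concentrations. Lysates immunoblotted with fluorescent secondaries for Ikaros (D6N9Y) or Aiolos (D1C1E). Signal taken relative to β-actin and normalized to DMSO control.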

A further assay deals with OCI-LY10 cells. Nature of the assay: CTG Cell Viability Assay - OCI-LY10. The conditions noted are these: Homo sapiens, 96 h, CellTiter-Glo, 4 days incubation. On the procedure: Compound-mediated viability effect on OCI-LY10 or SUDHL-2 was quantitatively determined using the CellTiter-Glo® Luminescent Cell Viability Assay kit from Promega (Catalog number G7570) following manufacturer's recommended procedures. Briefly, OCI-LY10 or SUDHL-2 cells were seeded into 384 well plates (Grenier Bio-One, Catalog number 781080) with a density of 10,000 cells per well. Compounds were then added to the assay plate with final top concentration of 10 μM and 1:3 dilution series with total of 9 doses. The final DMSO concentration was normalized to 0.2%. The assay plates were incubated at 37° C. for 4 days under 5% CO2. Then the assay plate was equilibrated at room temperature for 10 minutes. To determine cell viability, 30 μL CellTiter Glo reagent was added to each well and the assay plate was centrifuged at 1000 rpm for 30 second, incubated at room temperature for 10 min, and analyzed by detecting the luminescence using a multimode plate reader (EnVision 2105, PerkinElmer). The data was then analyzed by software Prism 7.0 from GraphPad and the dose response curves were fit using a three-parameter logistic equation to calculate IC50.

In assay [2] the target is T3, Ikaros (protein product of gene IKZF1) (Homo sapiens, UniProt Q13422+Q96SW2).
T3 construct: endogenous in cells; host or cells: OCI-LY10
As to the kind of experiment: Quantification of Ikaros degradation in OCI-LY10 cells (quantitative immunoblotting). The conditions noted are these: 6 h treatment. The gist of the method: as §1

T2 sequence (Q9UKT9 whole entry): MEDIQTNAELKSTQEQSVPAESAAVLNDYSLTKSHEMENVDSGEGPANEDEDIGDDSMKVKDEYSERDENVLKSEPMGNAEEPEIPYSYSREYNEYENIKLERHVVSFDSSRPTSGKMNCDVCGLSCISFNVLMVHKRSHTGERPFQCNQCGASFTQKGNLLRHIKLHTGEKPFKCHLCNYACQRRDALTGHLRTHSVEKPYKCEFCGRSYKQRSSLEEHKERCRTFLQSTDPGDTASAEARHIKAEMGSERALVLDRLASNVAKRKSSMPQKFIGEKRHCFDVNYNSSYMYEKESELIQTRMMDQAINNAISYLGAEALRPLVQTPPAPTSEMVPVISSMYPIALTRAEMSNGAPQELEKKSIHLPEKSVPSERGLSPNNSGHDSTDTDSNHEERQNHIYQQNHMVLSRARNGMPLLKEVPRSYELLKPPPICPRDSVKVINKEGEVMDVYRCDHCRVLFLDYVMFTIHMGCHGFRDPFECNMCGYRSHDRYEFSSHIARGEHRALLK
T2 sequence (Q96SW2 whole entry): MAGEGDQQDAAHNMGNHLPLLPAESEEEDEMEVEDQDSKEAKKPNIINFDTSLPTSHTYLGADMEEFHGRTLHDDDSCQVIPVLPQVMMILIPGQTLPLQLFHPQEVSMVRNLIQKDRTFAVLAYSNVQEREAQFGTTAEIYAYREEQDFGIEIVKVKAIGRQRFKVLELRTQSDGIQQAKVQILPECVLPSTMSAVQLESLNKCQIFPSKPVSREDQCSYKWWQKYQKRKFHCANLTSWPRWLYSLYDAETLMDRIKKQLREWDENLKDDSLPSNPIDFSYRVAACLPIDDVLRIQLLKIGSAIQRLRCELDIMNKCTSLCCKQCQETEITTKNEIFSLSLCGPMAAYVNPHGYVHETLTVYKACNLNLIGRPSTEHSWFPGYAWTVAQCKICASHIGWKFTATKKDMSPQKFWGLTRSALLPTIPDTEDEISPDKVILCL
T2 sequence (Q16531 whole entry partner): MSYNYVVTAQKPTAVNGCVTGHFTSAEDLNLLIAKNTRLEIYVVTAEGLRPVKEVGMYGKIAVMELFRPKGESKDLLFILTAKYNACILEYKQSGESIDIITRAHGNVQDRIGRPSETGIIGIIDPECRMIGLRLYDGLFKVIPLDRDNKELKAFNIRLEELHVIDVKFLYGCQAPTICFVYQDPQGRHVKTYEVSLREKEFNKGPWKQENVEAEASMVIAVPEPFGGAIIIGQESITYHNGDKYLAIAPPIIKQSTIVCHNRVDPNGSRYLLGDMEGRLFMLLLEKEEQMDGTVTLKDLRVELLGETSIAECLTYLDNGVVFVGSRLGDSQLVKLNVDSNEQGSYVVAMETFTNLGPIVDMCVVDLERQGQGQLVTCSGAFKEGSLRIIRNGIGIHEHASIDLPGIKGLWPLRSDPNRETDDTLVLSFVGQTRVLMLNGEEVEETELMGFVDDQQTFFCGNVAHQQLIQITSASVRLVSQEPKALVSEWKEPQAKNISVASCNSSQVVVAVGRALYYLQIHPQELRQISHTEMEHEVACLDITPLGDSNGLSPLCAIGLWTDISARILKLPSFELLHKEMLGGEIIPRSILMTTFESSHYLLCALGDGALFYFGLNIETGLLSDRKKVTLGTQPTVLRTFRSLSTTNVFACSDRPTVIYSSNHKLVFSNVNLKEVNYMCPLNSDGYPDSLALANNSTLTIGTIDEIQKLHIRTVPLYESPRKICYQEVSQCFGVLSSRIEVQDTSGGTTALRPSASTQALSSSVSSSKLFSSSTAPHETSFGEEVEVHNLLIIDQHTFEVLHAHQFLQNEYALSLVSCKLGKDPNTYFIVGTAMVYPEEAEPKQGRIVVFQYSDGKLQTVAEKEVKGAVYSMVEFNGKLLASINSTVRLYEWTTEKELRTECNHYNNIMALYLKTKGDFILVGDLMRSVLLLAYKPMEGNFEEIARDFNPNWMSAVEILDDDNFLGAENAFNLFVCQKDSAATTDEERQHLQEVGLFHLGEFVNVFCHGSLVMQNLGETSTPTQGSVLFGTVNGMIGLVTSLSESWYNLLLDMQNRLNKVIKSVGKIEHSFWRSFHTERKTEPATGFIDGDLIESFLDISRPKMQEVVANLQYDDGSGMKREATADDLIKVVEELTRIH
T3 sequence (Q13422 whole entry): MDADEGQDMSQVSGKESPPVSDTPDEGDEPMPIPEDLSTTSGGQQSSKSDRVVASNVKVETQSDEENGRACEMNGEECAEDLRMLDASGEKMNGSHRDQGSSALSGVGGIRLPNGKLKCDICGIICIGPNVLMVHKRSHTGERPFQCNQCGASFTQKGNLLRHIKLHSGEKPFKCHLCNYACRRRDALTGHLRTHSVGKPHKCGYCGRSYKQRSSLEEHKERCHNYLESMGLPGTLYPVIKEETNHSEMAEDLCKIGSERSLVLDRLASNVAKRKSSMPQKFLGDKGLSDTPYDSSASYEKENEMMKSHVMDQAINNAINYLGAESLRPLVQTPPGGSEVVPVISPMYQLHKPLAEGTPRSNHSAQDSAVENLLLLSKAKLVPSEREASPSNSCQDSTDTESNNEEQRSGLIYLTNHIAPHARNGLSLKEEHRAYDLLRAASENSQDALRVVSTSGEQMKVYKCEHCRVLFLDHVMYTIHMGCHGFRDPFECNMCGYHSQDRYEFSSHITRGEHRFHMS
T3 sequence (Q96SW2 whole entry): as the sequence (Q96SW2 whole entry) above
T3 sequence (Q16531 whole entry partner): as the sequence (Q16531 whole entry partner) above

On to `CC(C)(O)c1cc2nc([C@H]3CC[C@H](CN4CC(CCNc5cccc6c5C(=O)N(C5CCC(=O)NC5=O)C6=O)C4)CC3)sc2cc1NC(=O)c1cccc(C(F)(F)F)n1` (stereo partly shown) [I-45], for which the DC50 on IRAK4 is under 50 nM; in assay [1], 100 to 500 nM; in assay [2] it was 100 to 500 nM. In the assay on OCI-LY10 cells, this compound registered an IC50 of 100 to 500 nM.

As for `COc1cc2nc([C@H]3CC[C@H](CN4CC5(CCC(CNc6cccc7c6C(=O)N(C6CCC(=O)NC6=O)C7=O)CC5)C4)CC3)sc2cc1NC(=O)c1cccc(C(F)(F)F)n1` (stereo partly shown) [I-20], the DC50 at IRAK4 was 50 to 100 nM; in assay [1], 100 to 500 nM; in assay [2] it was 100 to 500 nM. In addition, the IC50 in the assay on OCI-LY10 cells is under 50 nM.

As for `CC(C)(O)c1cc2nc([C@H]3CC[C@H](CN4CC5(CC(CCNc6cccc7c6C(=O)N(C6CCC(=O)NC6=O)C7=O)C5)C4)CC3)sc2cc1NC(=O)c1cccc(C(F)(F)F)c1` (stereo partly shown) [I-53], the DC50 on IRAK4 was 100 to 500 nM; in assay [1], under 50 nM; in assay [2], under 50 nM. This compound also registered an IC50 in the assay on OCI-LY10 cells of under 50 nM.

`CC(C)(O)c1cc2nc([C@H]3CC[C@H](CN4CC5(CC(CCNc6cccc7c6C(=O)N(C6CCC(=O)NC6=O)C7=O)C5)C4)CC3)sc2cc1NC(=O)c1cccc(C(F)F)n1` (stereo partly shown) [I-47]: the DC50 (at IRAK4; in assay [1]; in assay [2]) was under 50 nM in each case. The compound also gave an IC50 with OCI-LY10 cells of under 50 nM.

`Cc1cccc(C(=O)Nc2cc3sc([C@H]4CC[C@H](CN5CCC6(CC5)CC(CCNc5cccc7c5C(=O)N(C5CCC(=O)NC5=O)C7=O)C6)CC4)nc3cc2C(C)(C)O)n1` (stereo partly shown) [I-22]: the figures for the DC50 (at IRAK4; in assay [1]; in assay [2]) were 50 to 100 nM, under 50 nM and under 50 nM, respectively. The same compound returned an IC50 in the assay on OCI-LY10 cells of under 50 nM.

For `C[C@@H](CNc1cccc2c1C(=O)N(C1CCC(=O)NC1=O)C2=O)C1CC2(C1)CN(C[C@H]1CC[C@H](c3nc4cc(C(C)(C)O)c(NC(=O)c5cccc(C(F)(F)F)n5)cc4s3)CC1)C2` (stereo partly shown) [I-32], the DC50 (on IRAK4; in assay [1]; in assay [2]) was under 50 nM in each case. In addition, the half-inhibitory concentration (IC50) in the assay with OCI-LY10 cells lay in the range of 50 to 100 nM.

Take `CC(C)(O)c1cc2nc([C@H]3CC[C@H](CN4CCC5(CC4)CC4(CC(CCNc6cccc7c6C(=O)N(C6CCC(=O)NC6=O)C7=O)C4)C5)CC3)sc2cc1NC(=O)c1cccc(C(F)(F)F)n1` (stereo partly shown) [I-59]: the DC50 (on IRAK4; in assay [1]; in assay [2]) was 100 to 500 nM each time. Moreover, in the assay on OCI-LY10 cells, the half-inhibitory concentration (IC50) was in the range of 100 to 500 nM.

`COc1cc2nc([C@H]3CC[C@H](CN(C)[C@H]4CC[C@]5(CC4)C[C@@H](CNc4cccc6c4C(=O)N(C4CCC(=O)NC4=O)C6=O)C5)CC3)sc2cc1NC(=O)c1cccc(C(F)(F)F)n1` (stereo partly shown) [I-21]: the DC50 on IRAK4 was 100 to 500 nM; in assay [1], under 50 nM; in assay [2] it was 50 to 100 nM. Also, the IC50 in the assay with OCI-LY10 cells lay within 100 to 500 nM.

Turning to `CN(C[C@H]1CC[C@H](c2nc3cc(C(C)(C)O)c(NC(=O)c4cccc(C(F)(F)F)n4)cc3s2)CC1)[C@H]1CC[C@@H](CNc2cccc3c2C(=O)N(C2CCC(=O)NC2=O)C3=O)CC1` (stereo partly shown) [I-48], the DC50 was over 1000 nM on IRAK4, under 50 nM in assay [1] and under 50 nM in assay [2]. The compound further came in with an IC50 in the assay with OCI-LY10 cells of 50 to 100 nM.

With `COc1cc2nc([C@H]3CC[C@H](CN4CCC5(CC4)CC(CCNc4cccc6c4C(=O)N(C4CCC(=O)NC4=O)C6=O)C5)CC3)sc2cc1NC(=O)c1cccc(C(C)(F)F)n1` (stereo partly shown) [I-19], the DC50 on IRAK4 is 50 to 100 nM; in assay [1], under 50 nM; in assay [2], 50 to 100 nM. In the assay on OCI-LY10 cells, this compound returned an IC50 of 100 to 500 nM.

Turning to `CC(C)(O)c1cc2nc([C@H]3CC[C@H](CN4CCC(CCNc5cccc6c5C(=O)N(C5CCC(=O)NC5=O)C6=O)CC4)CC3)sc2cc1NC(=O)c1cccc(C(F)(F)F)n1` (stereo partly shown) [I-24], the DC50 (at IRAK4; in assay [1]; in assay [2]) was under 50 nM throughout. In addition, the half-maximal inhibitory concentration (IC50) with OCI-LY10 cells was under 50 nM.

For `CC(C)(O)c1cc2nc([C@H]3CC[C@H](CN4CC5(CCC(CNc6cccc7c6C(=O)N(C6CCC(=O)NC6=O)C7=O)CC5)C4)CC3)sc2cc1NC(=O)c1cccc(C(F)(F)F)n1` (stereo partly shown) [I-30], the DC50 (at IRAK4; in assay [1]; in assay [2]) was under 50 nM in each case. Besides, in the assay on OCI-LY10 cells, the IC50 lay within 50 to 100 nM.

With `CN(C[C@H]1CC[C@H](c2nc3cc(C(C)(C)O)c(NC(=O)c4cccc(C(F)(F)F)n4)cc3s2)CC1)[C@H]1CC[C@H](Nc2cccc3c2C(=O)N(C2CCC(=O)NC2=O)C3=O)CC1` (stereo partly shown) [I-28], the DC50 is under 50 nM at IRAK4, under 50 nM in assay [1] and 50 to 100 nM in assay [2]. In the assay with OCI-LY10 cells, this compound displayed a concentration for half-maximal inhibition (IC50) of 100 to 500 nM.
